In US9758526B2, “Quinoline-substituted compound” (TAIHO PHARMACEUTICAL CO., LTD., priority 2013, dated 2017):
pIC50: −log10 of the molar value.

Columns and labels:
[1] = test system: HCC827 expressing EGFR (d746-750); experiment: Growth inhibition, HCC827 expressing EGFR (d746-750); format: cell-based; conditions: Homo sapiens, HCC827, 72 h; cultured three days, CellTiter-Glo
Outline: (§1)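 Cells seeded and grown 1 day, then exposed 3 days at 37 °C/5% CO2 to serial dilutions (final DMSO 0.2%). CellTiter-Glo luminescence was read before dosing and after 3 days; GI50 from inhibition (C−T)/(C−C0)×100 by curve fitting.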

[2] = test system: NCI-H1975 expressing EGFR (T790M/L858R); experiment: Growth inhibition, NCI-H1975 expressing EGFR (T790M/L858R); format: cell-based; conditions: Homo sapiens, NCI-H1975, 72 h; cultured three days, CellTiter-Glo
Outline: as §1

EGFR (T790M/L858R) = biological target: T1, EGFR (T790M/L858R) (Homo sapiens, UniProt P00533, L858R/T790M); experiment: EGFR (T790M/L858R) kinase inhibitory activity; format: biochemical; conditions: ATP 1 μM, 25° C. for 120 minutes
T1 construct: purchased Carna Biosciences, Inc
T1 sequence (P00533 25-1210 T790M/L858R): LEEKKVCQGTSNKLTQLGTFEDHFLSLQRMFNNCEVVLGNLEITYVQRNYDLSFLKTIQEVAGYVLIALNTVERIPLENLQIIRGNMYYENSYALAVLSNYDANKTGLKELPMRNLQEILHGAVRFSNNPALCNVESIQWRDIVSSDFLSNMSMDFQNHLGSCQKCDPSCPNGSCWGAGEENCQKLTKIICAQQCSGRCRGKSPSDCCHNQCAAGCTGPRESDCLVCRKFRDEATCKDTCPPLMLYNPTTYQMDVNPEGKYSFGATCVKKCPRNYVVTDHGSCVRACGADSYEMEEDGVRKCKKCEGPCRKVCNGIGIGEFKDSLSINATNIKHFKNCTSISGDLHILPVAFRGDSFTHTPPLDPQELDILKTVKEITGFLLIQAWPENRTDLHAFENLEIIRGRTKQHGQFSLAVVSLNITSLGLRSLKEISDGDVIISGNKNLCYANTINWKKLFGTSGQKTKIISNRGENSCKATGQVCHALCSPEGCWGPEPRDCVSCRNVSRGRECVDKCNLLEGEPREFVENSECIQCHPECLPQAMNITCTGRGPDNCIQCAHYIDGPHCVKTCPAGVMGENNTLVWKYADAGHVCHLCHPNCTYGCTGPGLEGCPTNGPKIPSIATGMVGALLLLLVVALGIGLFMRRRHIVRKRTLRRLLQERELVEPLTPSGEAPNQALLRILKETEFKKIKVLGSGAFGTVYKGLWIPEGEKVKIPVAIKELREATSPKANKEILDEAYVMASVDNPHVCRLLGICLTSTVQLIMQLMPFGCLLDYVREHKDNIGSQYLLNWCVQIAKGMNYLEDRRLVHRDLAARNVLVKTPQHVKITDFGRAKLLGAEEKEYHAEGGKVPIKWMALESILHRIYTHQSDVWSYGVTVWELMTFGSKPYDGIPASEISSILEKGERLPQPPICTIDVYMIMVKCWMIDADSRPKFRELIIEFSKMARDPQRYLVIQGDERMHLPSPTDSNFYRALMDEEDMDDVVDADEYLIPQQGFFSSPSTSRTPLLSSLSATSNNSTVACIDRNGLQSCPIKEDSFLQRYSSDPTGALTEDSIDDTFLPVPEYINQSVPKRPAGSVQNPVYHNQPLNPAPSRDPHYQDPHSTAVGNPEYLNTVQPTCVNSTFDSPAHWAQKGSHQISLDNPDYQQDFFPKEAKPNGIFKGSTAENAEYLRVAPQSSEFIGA

EGFR (d746-750) = biological target: T2, EGFR (d746-750) (Homo sapiens, UniProt P00533, DEL746-750); experiment: EGFR (d746-750) kinase inhibitory activity; format: biochemical; conditions: ATP 5 μM, kinase reaction 90 minutes
T2 construct: purchased Carna Biosciences, Inc
T2 sequence (P00533 with tags, fused parts or gaps DEL746-750 limits assumed): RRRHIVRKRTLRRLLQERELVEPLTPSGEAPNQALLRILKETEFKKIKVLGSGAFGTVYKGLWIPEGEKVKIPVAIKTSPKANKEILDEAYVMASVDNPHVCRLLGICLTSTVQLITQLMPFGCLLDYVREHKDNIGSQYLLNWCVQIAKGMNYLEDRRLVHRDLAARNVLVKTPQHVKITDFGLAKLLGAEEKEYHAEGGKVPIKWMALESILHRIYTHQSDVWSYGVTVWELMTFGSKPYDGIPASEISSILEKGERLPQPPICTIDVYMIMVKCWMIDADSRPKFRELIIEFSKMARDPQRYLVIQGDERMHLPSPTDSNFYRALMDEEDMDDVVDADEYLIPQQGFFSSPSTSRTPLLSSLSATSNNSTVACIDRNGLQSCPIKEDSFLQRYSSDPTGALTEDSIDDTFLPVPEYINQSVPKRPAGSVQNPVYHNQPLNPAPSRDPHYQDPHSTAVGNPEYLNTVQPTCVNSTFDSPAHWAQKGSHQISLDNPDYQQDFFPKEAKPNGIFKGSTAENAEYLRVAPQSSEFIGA
Outline: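 Recombinant human EGFR (d746-750) with 250 nM biotinylated peptide, 5 μM ATP, 10 mM MgCl2 and 10 mM MnCl2, 2.5% DMSO, reacted 90 min at 25° C., stopped with EDTA. Phosphotyrosine detected by TR-FRET (Eu-PT66 antibody/APC-streptavidin, 665/620 nm ratio), with EDTA-pre-stopped background; IC50 (nM) from inhibition curve fit.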

EGFR (WT) = biological target: T3, EGFR (WT) (Homo sapiens, UniProt P00533); experiment: EGFR (WT) kinase inhibitory activity; format: biochemical; conditions: substrate peptide 500 nM
T3 construct: expressing a cytoplasmic domain of human EGFR (WT) with its N-terminus fused to a FLAG tag; FLAG (N); made in house; host or cells: insect Sf9 cells, baculovirus expression system
T3 sequence (P00533 669-1210 limits assumed): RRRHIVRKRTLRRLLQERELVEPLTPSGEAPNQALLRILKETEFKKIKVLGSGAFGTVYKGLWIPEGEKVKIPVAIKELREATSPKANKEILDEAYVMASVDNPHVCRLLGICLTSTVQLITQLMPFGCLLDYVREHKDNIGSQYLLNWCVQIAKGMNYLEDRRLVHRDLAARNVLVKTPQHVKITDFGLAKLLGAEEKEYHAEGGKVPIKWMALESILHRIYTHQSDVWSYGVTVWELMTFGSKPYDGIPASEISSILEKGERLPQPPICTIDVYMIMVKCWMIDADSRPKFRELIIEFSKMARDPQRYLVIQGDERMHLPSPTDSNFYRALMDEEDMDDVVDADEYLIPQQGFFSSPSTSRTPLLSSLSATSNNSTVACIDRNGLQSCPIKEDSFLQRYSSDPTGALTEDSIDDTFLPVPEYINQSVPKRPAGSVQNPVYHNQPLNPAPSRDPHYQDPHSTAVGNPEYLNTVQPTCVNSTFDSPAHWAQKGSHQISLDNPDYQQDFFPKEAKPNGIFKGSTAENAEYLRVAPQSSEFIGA
Outline: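 The kinase was the cytoplasmic domain of human EGFR WT, N-terminally FLAG-tagged, expressed in Sf9 cells via baculovirus and purified on anti-FLAG agarose. Phosphotyrosine was detected by Eu-PT66/APC-SA TR-FRET (665/620 nm ratio), and IC50 was fitted from % inhibition.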

EGFR (L858R) = biological target: T4, EGFR (L858R) (Homo sapiens, UniProt P00533, L858R); experiment: EGFR (L858R) kinase inhibitory activity; format: biochemical; conditions: ATP 4 μM
T4 construct: purchased Carna Biosciences, Inc
T4 sequence (P00533 25-1210 L858R): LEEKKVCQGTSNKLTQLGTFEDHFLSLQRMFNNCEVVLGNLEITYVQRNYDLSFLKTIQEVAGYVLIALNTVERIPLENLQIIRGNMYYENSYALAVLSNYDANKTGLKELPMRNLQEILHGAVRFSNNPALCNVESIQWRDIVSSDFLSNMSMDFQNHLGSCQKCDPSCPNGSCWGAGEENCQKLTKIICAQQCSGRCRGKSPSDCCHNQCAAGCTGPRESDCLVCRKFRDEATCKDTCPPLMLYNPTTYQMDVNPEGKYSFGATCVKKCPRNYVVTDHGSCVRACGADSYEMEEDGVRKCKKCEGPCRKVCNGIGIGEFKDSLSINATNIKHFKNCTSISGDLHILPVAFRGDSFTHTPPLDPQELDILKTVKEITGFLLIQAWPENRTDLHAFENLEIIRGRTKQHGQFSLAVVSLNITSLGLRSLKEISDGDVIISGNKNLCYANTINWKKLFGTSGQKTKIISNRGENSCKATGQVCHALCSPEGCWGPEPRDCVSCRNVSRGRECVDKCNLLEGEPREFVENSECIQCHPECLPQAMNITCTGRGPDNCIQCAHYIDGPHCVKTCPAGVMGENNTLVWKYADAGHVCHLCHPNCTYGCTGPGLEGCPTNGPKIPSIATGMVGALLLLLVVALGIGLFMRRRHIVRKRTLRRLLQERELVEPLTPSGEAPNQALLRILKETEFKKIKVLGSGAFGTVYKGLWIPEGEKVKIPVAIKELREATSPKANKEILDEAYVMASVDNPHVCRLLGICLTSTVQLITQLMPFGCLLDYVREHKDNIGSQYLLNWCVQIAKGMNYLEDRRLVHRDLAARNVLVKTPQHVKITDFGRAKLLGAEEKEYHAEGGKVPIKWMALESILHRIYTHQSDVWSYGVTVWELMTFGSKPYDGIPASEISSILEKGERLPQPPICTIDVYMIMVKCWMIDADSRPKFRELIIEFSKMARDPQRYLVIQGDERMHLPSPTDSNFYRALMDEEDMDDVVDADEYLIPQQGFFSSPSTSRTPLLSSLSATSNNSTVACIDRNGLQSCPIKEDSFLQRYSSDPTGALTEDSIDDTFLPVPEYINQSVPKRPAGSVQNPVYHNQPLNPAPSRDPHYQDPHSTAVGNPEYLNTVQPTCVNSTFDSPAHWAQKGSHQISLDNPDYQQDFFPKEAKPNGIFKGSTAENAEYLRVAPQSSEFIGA
Outline: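 Recombinant human EGFR (L858R) was incubated with 250 nM biotinylated peptide, 4 μM ATP, 10 mM MgCl2 and 10 mM MnCl2 in 2.5% DMSO for 120 min at 25 °C. The reaction was stopped with EDTA, and phosphotyrosine was detected by TR-FRET (Eu-PT66 antibody/APC-SA, 665/620 nm ratio). IC50 was obtained from the inhibition curves.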

[3] = test system: A431 expressing EGFR (WT); experiment: Growth inhibition, A431 expressing EGFR (WT); format: cell-based; conditions: Homo sapiens, A-431, 72 h; cultured three days, CellTiter-Glo
Outline: as §1

EGFR (d746-750/T790M) = biological target: T5, EGFR (d746-750/T790M) (Homo sapiens, UniProt P00533, DEL746-750/T790M); experiment: EGFR (d746-750/T790M) kinase inhibitory activity; format: biochemical; conditions: ATP 1.5 μM
T5 construct: purchased Carna Biosciences, Inc
T5 sequence (P00533 with tags, fused parts or gaps DEL746-750/T790M limits assumed): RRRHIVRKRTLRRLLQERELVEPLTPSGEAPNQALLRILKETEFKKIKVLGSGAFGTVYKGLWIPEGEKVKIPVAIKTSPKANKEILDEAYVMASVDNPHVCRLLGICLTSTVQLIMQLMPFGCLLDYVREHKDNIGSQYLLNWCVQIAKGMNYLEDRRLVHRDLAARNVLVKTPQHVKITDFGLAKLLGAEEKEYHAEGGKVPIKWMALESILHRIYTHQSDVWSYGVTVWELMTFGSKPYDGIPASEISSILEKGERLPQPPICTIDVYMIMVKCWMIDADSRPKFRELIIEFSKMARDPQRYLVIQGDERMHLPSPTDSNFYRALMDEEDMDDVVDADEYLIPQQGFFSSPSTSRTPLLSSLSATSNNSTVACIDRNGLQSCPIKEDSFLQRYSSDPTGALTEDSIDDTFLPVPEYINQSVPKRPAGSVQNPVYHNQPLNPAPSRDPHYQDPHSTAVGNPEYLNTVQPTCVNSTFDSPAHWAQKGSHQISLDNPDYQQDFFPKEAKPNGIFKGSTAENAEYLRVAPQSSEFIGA
Outline: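 Recombinant human EGFR d746-750/T790M phosphorylating biotinylated peptide (250 nM) with 1.5 μM ATP, 10 mM MgCl2 and MnCl2, 2.5% DMSO, 120 min at 25 °C. EDTA-stopped; phosphotyrosine detected by Eu-PT66/APC-SA TR-FRET (665/620 nm ratio). IC50 from percent inhibition curves, EDTA-first samples as background.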

Structure (SMILES)	GI50 [1]	GI50 [2]	pIC50 (EGFR (T790M/L858R))	pIC50 (EGFR (d746-750))	pIC50 (EGFR (WT))	pIC50 (EGFR (L858R))	GI50 [3]	pIC50 (EGFR (d746-750/T790M))
C=CC(=O)N(C)[C@@H]1CC(=C)c2c(-c3cnc4ccccc4c3)c3c(N)ncnc3n2C1 [Example 22, (R)—N-(4-amino-6-methylene-5-(quinolin-3-yl)-6,7,8,9-tetrahydropyrimido[5,4-b]indolizin-8-yl)-N-methylacrylamide]	5.7 nM	56 nM	9.46	9.48	8.26	9.43	1500 nM	9.64
C=CC(=O)N(C)[C@@H]1C=C(C)c2c(-c3cnc4ccccc4c3)c3c(N)ncnc3n2C1 [Example 23, (R)—N-(4-amino-6-methyl-5-(quinolin-3-yl)-8,9-dihydropyrimido[5,4-b]indolizin-8-yl)-N-methylacrylamide]	3.3 nM	47 nM	9.36	9.54	8.14	9.20	5100 nM	9.52
C=CC(=O)N[C@@H]1Cn2c(c(-c3cnc4ccccc4c3)c3c(N)ncnc32)C1C (stereo partly drawn) [Example 24, N-((7S)-4-amino-6-methyl-5-(quinolin-3-yl)-7,8-dihydro-6H-pyrimido[5,4-b]pyrrolizin-7-yl)acrylamide]	4.9 nM	110 nM	9.08	9.07	8.07	8.96	3400 nM	9.51
